In patent US8119681B2, “2-[1-phenyl-5-hydroxy or methoxy-4alpha-methyl-hexahydrocyclopenta [ƒ]indazole-5-YL]ethyl phenyl derivatives as glucocorticoid receptor ligands” (Merck Sharp & Dohme Corp., priority 2006, dated 2012):

Biological target: T1, human GR (Homo sapiens, UniProt P04150)
T1 sequence (P04150 1-777): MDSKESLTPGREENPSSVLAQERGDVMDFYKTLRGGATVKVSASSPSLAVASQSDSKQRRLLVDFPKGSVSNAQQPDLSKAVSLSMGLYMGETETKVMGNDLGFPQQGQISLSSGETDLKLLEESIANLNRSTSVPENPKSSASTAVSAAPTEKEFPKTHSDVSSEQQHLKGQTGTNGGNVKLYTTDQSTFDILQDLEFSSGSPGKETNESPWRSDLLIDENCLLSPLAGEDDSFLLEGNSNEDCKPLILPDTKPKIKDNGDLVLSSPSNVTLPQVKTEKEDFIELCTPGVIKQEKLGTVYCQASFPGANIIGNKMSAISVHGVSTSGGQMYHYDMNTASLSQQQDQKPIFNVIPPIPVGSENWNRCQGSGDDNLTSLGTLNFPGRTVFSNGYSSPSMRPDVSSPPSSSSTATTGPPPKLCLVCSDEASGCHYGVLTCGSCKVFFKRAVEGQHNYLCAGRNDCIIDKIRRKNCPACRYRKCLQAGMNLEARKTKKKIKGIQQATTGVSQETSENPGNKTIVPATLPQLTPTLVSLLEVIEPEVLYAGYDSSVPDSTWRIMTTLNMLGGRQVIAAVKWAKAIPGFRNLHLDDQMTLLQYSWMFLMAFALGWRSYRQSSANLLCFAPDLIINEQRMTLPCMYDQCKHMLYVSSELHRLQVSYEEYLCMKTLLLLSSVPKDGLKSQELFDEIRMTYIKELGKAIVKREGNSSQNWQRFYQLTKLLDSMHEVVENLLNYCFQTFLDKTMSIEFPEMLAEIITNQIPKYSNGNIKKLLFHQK
Experiment: Transrepression Assay (GITAR), TNFα-β-lactamase reporter gene in U937 cells
Format: cell-based
Set-up: U937 cells contain an endogenous glucocorticoid receptor (GR); endogenous in cells; host or cells: U937 cells stably transfected with the TNF-α promoter/β-lactamase reporter only
Settings: U-937; 100 nM dexamethasone = 100% activity; read-out: maximal activity in the transrepression assay
Procedure, shortened: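 Reporter readout used CCF2-AM loading for 70–90 min at room temperature after overnight (~18 h, 37 °C) PMA (5 ng/ml final) and LPS (100 ng/ml final) stimulation of compound-treated (30–45 min) TNFα-β-lactamase U937 cells expressing native GR. Activity was normalised to 100 nM dexamethasone repression.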

Question: Which Emax does the source give for CCNC(=O)Cc1ccccc1CC[C@]1(O)CCC2=Cc3c(cnn3-c3ccc(F)cc3)C[C@@]21C [Example 106, N-ethyl-2-(2-{2-[(4αS,5R)-1-(4-fluorophenyl)-5-hydroxy-4α-methyl-1,4,4α,5,6,7-hexahydrocyclopenta[f]indazol-5-yl]ethyl}phenyl)acetamide] here?
Answer: 5 to 100%

Question: CN(C)C(=O)Cc1ccccc1CC[C@]1(O)CCC2=Cc3c(cnn3-c3ccc(F)cc3)C[C@@]21C [Example 108, 2-(2-{2-[(4αS,5R)-1-(4-fluorophenyl)-5-hydroxy-4α-methyl-1,4,4α,5,6,7-hexahydrocyclopenta[f]indazol-5-yl]ethyl}phenyl)-N,N-dimethylacetamide] was tested. Which Emax did it give?
Answer: 5 to 100%

Question: With C[C@]12Cc3cnn(-c4ccc(F)cc4)c3C=C1CC[C@@]2(O)CCc1ccccc1CC(=O)NC1CC1 [Example 109, N-cyclopropyl-2-(2-{2-[(4αS,5R)-1-(4-fluorophenyl)-5-hydroxy-4α-methyl-1,4,4α,5,6,7-hexahydrocyclopenta[f]indazol-5-yl]ethyl}phenyl)acetamide] as the compound, how does the Emax read?
Answer: 5 to 100%

Question: C[C@]12Cc3cnn(-c4ccc(F)cc4)c3C=C1CC[C@@]2(O)CCc1cccc(F)c1N1CCC1=O [Example 110, 1-(2-fluoro-6-{2-[(4αS,5R)-1-(4-fluorophenyl)-5-hydroxy-4α-methyl-1,4,4α,5,6,7-hexahydrocyclopenta[f]indazol-5-yl]ethyl}phenyl)azetidin-2-one] was tested. Which Emax did it give?
Answer: 5 to 100%

Question: Which Emax does the source give for C[C@]12Cc3cnn(-c4ccc(F)cc4)c3C=C1CC[C@@]2(O)CCc1ccccc1N1CCCC1=O [Example 111, 1-(2-{2-[(4αS,5R)-1-(4-fluorophenyl)-5-hydroxy-4α-methyl-1,4,4α,5,6,7-hexahydrocyclopenta[f]indazol-5-yl]ethyl}phenyl)pyrrolidin-2-one] here?
Answer: 5 to 100%

Question: C[C@]12Cc3cnn(-c4ccc(F)cc4)c3C=C1CC[C@@]2(O)CCc1cc(F)ccc1N [Example 112, (4αS,5R)-5-[2-(2-amino-5-fluorophenyl)ethyl]-1-(4-fluorophenyl)-4α-methyl-1,4,4α,5,6,7-hexahydrocyclopenta[f]indazol-5-ol] was tested. Which Emax did it give?
Answer: 5 to 100%

Question: Which Emax does the source give for C[C@]12Cc3cnn(-c4ccc(F)cc4)c3C=C1CC[C@@]2(O)CCc1ccccc1NS(C)(=O)=O [Example 115, N-(2-{2-[(4αS,5R)-1-(4-fluorophenyl)-5-hydroxy-4α-methyl-1,4,4α,5,6,7-hexahydrocyclopenta[f]indazol-5-yl]ethyl}phenyl)methanesulfonamide] here?
Answer: 5 to 100%

Question: With C[C@]12Cc3cnn(-c4ccc(F)cc4)c3C=C1CC[C@@]2(O)CCc1cccc(F)c1NS(=O)(=O)CC(F)(F)F [Example 116, 2,2,2-trifluoro-N-(2-fluoro-6-{2-[(4αS,5R)-1-(4-fluorophenyl)-5-hydroxy-4α-methyl-1,4,4α,5,6,7-hexahydrocyclopenta[f]indazol-5-yl]ethyl}phenyl)ethanesulfonamide] as the compound, how does the Emax read?
Answer: 5 to 100%

Question: For CN(C)S(=O)(=O)Nc1ccc(F)cc1CC[C@]1(O)CCC2=Cc3c(cnn3-c3ccc(F)cc3)C[C@@]21C [Example 117, N′-(4-fluoro-2-{2-[(4αS,5R)-1-(4-fluorophenyl)-5-hydroxy-4α-methyl-1,4,4α,5,6,7-hexahydrocyclopenta[f]indazol-5-yl]ethyl}phenyl)-N,N-dimethylsulfamide], which Emax is on record?
Answer: 5 to 100%

Question: For C[C@]12Cc3cnn(-c4ccc(F)cc4)c3C=C1CC[C@@]2(O)CCc1ccccc1NS(=O)(=O)CC(F)(F)F [Example 118, 2,2,2-trifluoro-N-(2-{2-[(4αS,5R)-1-(4-fluorophenyl)-5-hydroxy-4α-methyl-1,4,4α,5,6,7-hexahydrocyclopenta[f]indazol-5-yl]ethyl}phenyl)ethanesulfonamide], which Emax is on record?
Answer: 5 to 100%

Question: How did the Emax turn out when C[C@]12Cc3cnn(-c4ccc(F)cc4)c3C=C1CC[C@@]2(O)CCc1cc(F)ccc1NS(=O)(=O)CC(F)(F)F [Example 119, 2,2,2-trifluoro-N-(4-fluoro-2-{2-[(4αS,5R)-1-(4-fluorophenyl)-5-hydroxy-4α-methyl-1,4,4α,5,6,7-hexahydrocyclopenta[f]indazol-5-yl]ethyl}phenyl)ethanesulfonamide] was run?
Answer: 5 to 100%

Question: For CC(C)S(=O)(=O)c1ccccc1CC[C@]1(O)CCC2=Cc3c(cnn3-c3ccc(F)cc3)C[C@@]21C [Example 120, (4αS,5R)-1-(4-fluorophenyl)-5-{2-[2-(isopropylsulfonyl)phenyl]ethyl}-4α-methyl-1,4,4α,5,6,7-hexahydrocyclopenta[f]indazol-5-ol], which Emax is on record?
Answer: 5 to 100%

Question: COC(=O)Nc1ccccc1CC[C@]1(O)CCC2=Cc3c(cnn3-c3ccc(F)cc3)C[C@@]21C [Example 121, methyl (2-{2-[(4αS,5R)-1-(4-fluorophenyl)-5-hydroxy-4α-methyl-1,4,4α,5,6,7-hexahydrocyclopenta[f]indazol-5-yl]ethyl}phenyl)carbamate] was tested. Which Emax did it give?
Answer: 5 to 100%

Question: How did the Emax turn out when CCOC(=O)Nc1c(F)cccc1CC[C@]1(O)CCC2=Cc3c(cnn3-c3ccc(F)cc3)C[C@@]21C [Example 122, ethyl (2-fluoro-6-{2-[(4αS,5R)-1-(4-fluorophenyl)-5-hydroxy-4α-methyl-1,4,4α,5,6,7-hexahydrocyclopenta[f]indazol-5-yl]ethyl}phenyl)carbamate] was run?
Answer: 5 to 100%

Question: How did the Emax turn out when COC(=O)Nc1c(F)cccc1CC[C@]1(O)CCC2=Cc3c(cnn3-c3ccc(F)cc3)C[C@@]21C [Example 123, methyl (2-fluoro-6-{2-[(4αS,5R)-1-(4-fluorophenyl)-5-hydroxy-4α-methyl-1,4,4α,5,6,7-hexahydrocyclopenta[f]indazol-5-yl]ethyl}phenyl)carbamate] was run?
Answer: 5 to 100%

Question: With COC(=O)Nc1ccc(F)cc1CC[C@]1(O)CCC2=Cc3c(cnn3-c3ccc(F)cc3)C[C@@]21C [Example 124, methyl (4-fluoro-6-{2-[(4αS,5R)-1-(4-fluorophenyl)-5-hydroxy-4α-methyl-1,4,4α,5,6,7-hexahydrocyclopenta[f]indazol-5-yl]ethyl}phenyl)carbamate] as the compound, how does the Emax read?
Answer: 5 to 100%

Question: For CCOC(=O)Nc1ccc(F)cc1CC[C@]1(O)CCC2=Cc3c(cnn3-c3ccc(F)cc3)C[C@@]21C [Example 125, ethyl (4-fluoro-2-{2-[(4αS,5R)-1-(4-fluorophenyl)-5-hydroxy-4α-methyl-1,4,4α,5,6,7-hexahydrocyclopenta[f]indazol-5-yl]ethyl}phenyl)carbamate], which Emax is on record?
Answer: 5 to 100%

Question: Which Emax does the source give for C[C@]12Cc3cnn(-c4ccc(F)cc4)c3C=C1CC[C@@]2(O)CCc1cccc(F)c1NC(=O)C(F)(F)F [Example 126, 2,2,2-trifluoro-N-(2-fluoro-6-{2-[(4αS,5R)-1-(4-fluorophenyl)-5-hydroxy-4α-methyl-1,4,4α,5,6,7-hexahydrocyclopenta[f]indazol-5-yl]ethyl}phenyl)acetamide] here?
Answer: 5 to 100%

Question: For C[C@]12Cc3cnn(-c4ccc(F)cc4)c3C=C1CC[C@@]2(O)CCc1ccccc1NC(=O)C(F)(F)F [Example 127, 2,2,2-trifluoro-N-(2-{2-[(4αS,5R)-1-(4-fluorophenyl)-5-hydroxy-4α-methyl-1,4,4α,5,6,7-hexahydrocyclopenta[f]indazol-5-yl]ethyl}phenyl)acetamide], which Emax is on record?
Answer: 5 to 100%

Question: CC(=O)Nc1c(F)cccc1CC[C@]1(O)CCC2=Cc3c(cnn3-c3ccc(F)cc3)C[C@@]21C [Example 128, N-(2-fluoro-6-{2-[(4αS,5R)-1-(4-fluorophenyl)-5-hydroxy-4α-methyl-1,4,4α,5,6,7-hexahydrocyclopenta[f]indazol-5-yl]ethyl}phenyl)acetamide] was tested. Which Emax did it give?
Answer: 5 to 100%

Question: How did the Emax turn out when CC(C)NC(=O)Nc1ccccc1CC[C@]1(O)CCC2=Cc3c(cnn3-c3ccc(F)cc3)C[C@@]21C [Example 129, N-(2-{2-[(4αS,5R)-1-(4-fluorophenyl)-5-hydroxy-4α-methyl-1,4,4α,5,6,7-hexahydrocyclopenta[f]indazol-5-yl]ethyl}phenyl)-N′-isopropylurea] was run?
Answer: 5 to 100%

Question: Which Emax does the source give for CC(C)NC(=O)Nc1c(F)cccc1CC[C@]1(O)CCC2=Cc3c(cnn3-c3ccc(F)cc3)C[C@@]21C [Example 130, N-(2-fluoro-6-{2-[(4αS,5R)-1-(4-fluorophenyl)-5-hydroxy-4α-methyl-1,4,4α,5,6,7-hexahydrocyclopenta[f]indazol-5-yl]ethyl}phenyl)-N′-isopropylurea] here?
Answer: 5 to 100%

Question: How did the Emax turn out when CCNC(=O)Nc1ccc(F)cc1CC[C@]1(O)CCC2=Cc3c(cnn3-c3ccc(F)cc3)C[C@@]21C [Example 131, N-ethyl-N′-(4-fluoro-2-{2-[(4αS,5R)-1-(4-fluorophenyl)-5-hydroxy-4α-methyl-1,4,4α,5,6,7-hexahydrocyclopenta[f]indazol-5-yl]ethyl}phenyl)urea] was run?
Answer: 5 to 100%
